Measurements: patent publication US12473277B2, “Solid forms of a modulator of hemoglobin” (GLOBAL BLOOD THERAPEUTICS, INC., priority 2021, dated 2025)
Where a name gives a salt, the structure may show the parent alone.

Experiments:
[1] = Binary interconversion slurry experiments between Compound I Form I and Compound I Material II; format: physicochemical; settings: room temperature slurries
From the text: Binary interconversion slurry experiments between Compound I Form I and Compound I Material II in different solvent systems at room temperature are summarized in Table 2. Saturated solutions were generated and then added to mixtures composed of approximately equivalent quantities of the two polymorphs. The samples were slurried for several days and the solids harvested and analyzed by XRPD.

[2] = Dynamic vapor sorption/desorption (DVS) isotherm; format: physicochemical; settings: for hygroscopicity indicated by DVS isotherm: 5% to 95% RH, 10% RH increments, nitrogen purge; for weight gain and loss through the sorption/desorption cycle / weight gain through the sorption cycle / weight loss upon desorption: DVS; for weight gain and loss through the sorption/desorption cycle / weight gain through the sorption cycle: 5 to 95% RH; for material recovered from the DVS experiment, by XRPD: after DVS sorption/desorption cycle; for weight loss upon desorption: 95 to 5% RH
Protocol: Automated vapor sorption (VS) data were collected on a Surface Measurement System DVS Intrinsic instrument or a VTI SGA-100 instrument. Samples were not dried prior to analysis. Sorption and desorption data were collected over a range from 5% to 95% relative humidity (RH) at 10% RH increments under a nitrogen purge. The equilibrium criterion used for analysis was less than 0.0100% weight change in 5 minutes with a maximum equilibration time of 3 hours. Data were not corrected for the initial moisture content of the samples.

[3] = Physical stability of solid forms under humidity, temperature or vacuum stress (XRPD/observation); format: physicochemical
Protocol: XRPD figures were generated using SSCI Pattern Match 3.0.4, unvalidated software. XRPD patterns were collected with a PANalytical X'Pert PRO MPD or a PANalytical Empyrean diffractometer using an incident beam of Cu radiation produced using an Optix long, fine-focus source. An elliptically graded multilayer mirror was used to focus Cu Kα X-rays through the specimen and onto the detector. Prior to the analysis, a silicon specimen (NIST SRM 640e or NIST SRM 6400 was analyzed to verify the observed position of the Si 111 peak is consistent with the NIST-certified position. A specimen of the sample was sandwiched between 3-μm-thick films and analyzed in transmission geometry. A beam-stop, short antiscatter extension, and antiscatter knife edge were used to minimize the background generated by air. Soller slits for the incident and diffracted beams were used to minimize broadening and asymmetry from axial divergence. Diffraction patterns were collected using a scanning position-sensitive detector (X'Celerator) located 240 mm from the specimen and Data Collector software v. 2.2b or v. 5.5.

[4] = physchem; settings: water

O=Cc1c(O)cccc1OC[C@@H]1COCCN1C(=O)c1cccnc1CCO [Compound I Form I, (S)-2-hydroxy-6-((4-(2-(2-hydroxyethyl)nicotinoyl)morpholin-3-yl)methoxy)benzaldehyde]
relative thermodynamic stability from interconversion studies [1]: most thermodynamically stable form relative to Material II
hygroscopicity indicated by DVS isotherm [2]: low hygroscopicity
weight gain and loss through the sorption/desorption cycle [2]: 0.7%
material recovered from the DVS experiment, by XRPD [2]: identified as Compound I Form I

O=Cc1c(O)cccc1OC[C@@H]1COCCN1C(=O)c1cccnc1CCO.O=S(=O)(O)c1cccc2c(S(=O)(=O)O)cccc12 [Compound I Napadisylate Form A, (S)-2-hydroxy-6-((4-(2-(2-hydroxyethyl)nicotinoyl)morpholin-3-yl)methoxy)benzaldehyde napadisylate]
physical stability under vacuum (XRPD) ([3]; 43° C. under vacuum, within 4 days): not physically stable

O=Cc1c(O)cccc1OC[C@@H]1COCCN1C(=O)c1cccnc1CCO [Compound I Material II, (S)-2-hydroxy-6-((4-(2-(2-hydroxyethyl)nicotinoyl)morpholin-3-yl)methoxy)benzaldehyde]
hygroscopicity indicated by DVS isotherm [2]: significant hygroscopicity above 85% RH
weight gain and loss through the sorption/desorption cycle [2]: approximately 3.4%
material recovered from the DVS experiment, by XRPD [2]: identified as Compound I Material II

CCS(=O)(=O)O.O=Cc1c(O)cccc1OC[C@@H]1COCCN1C(=O)c1cccnc1CCO [Compound I Esylate Form A, (S)-2-hydroxy-6-((4-(2-(2-hydroxyethyl)nicotinoyl)morpholin-3-yl)methoxy)benzaldehyde esylate]
physical stability under vacuum (XRPD) ([3]; 44° C. under vacuum): not physically stable

(S)-2-hydroxy-6-((4-(2-(2-hydroxyethyl)nicotinoyl)morpholin-3-yl)methoxy)benzaldehyde edisylate [Compound I Edisylate Material B]
physical stability under vacuum (XRPD) ([3]; 44° C. under vacuum): additional unidentified peaks

O=Cc1c(O)cccc1OC[C@@H]1COCCN1C(=O)c1cccnc1CCO.O=S(=O)(O)O [Compound I Sulfate Form A, (S)-2-hydroxy-6-((4-(2-(2-hydroxyethyl)nicotinoyl)morpholin-3-yl)methoxy)benzaldehyde sulfate]
solubility [4]: > 87 mg/mL
physical stability under vacuum (XRPD) ([3]; 43° C. under vacuum for 2 days): physically stable
physical stability under high humidity ([3]; 90% RH, ambient temperature, within 1 day): deliquesces

CCS(=O)(=O)O.O=Cc1c(O)cccc1OC[C@@H]1COCCN1C(=O)c1cccnc1CCO [Compound I Esylate Form B, (S)-2-hydroxy-6-((4-(2-(2-hydroxyethyl)nicotinoyl)morpholin-3-yl)methoxy)benzaldehyde esylate]
physical stability under high humidity ([3]; 90% relative humidity, ambient temperature): deliquesced

(S)-2-hydroxy-6-((4-(2-(2-hydroxyethyl)nicotinoyl)morpholin-3-yl)methoxy)benzaldehyde edisylate [Compound I Edisylate Form A]
physical stability upon exposure to ambient conditions ([3]; ambient conditions, relative humidity approximately 57%): very hygroscopic and not stable under ambient conditions
physical stability on drying in vacuum oven (XRPD) ([3]; damp sample, 43° C. vacuum oven): physical instability

O=Cc1c(O)cccc1OC[C@@H]1COCCN1C(=O)c1cccnc1CCO [amorphous Compound I, (S)-2-hydroxy-6-((4-(2-(2-hydroxyethyl)nicotinoyl)morpholin-3-yl)methoxy)benzaldehyde]
hygroscopicity indicated by DVS isotherm [2]: significant hygroscopicity
weight gain through the sorption cycle [2]: approximately 10%
weight loss upon desorption [2]: 7%
material recovered from the DVS experiment, by XRPD [2]: remained amorphous

O=Cc1c(O)cccc1OC[C@@H]1COCCN1C(=O)c1cccnc1CCO [Compound I HCl Form A]
hygroscopicity indicated by DVS isotherm [2]: significant hygroscopicity
weight gain through the sorption cycle [2]: 3%
weight loss upon desorption [2]: 3.3%
material recovered from the DVS experiment, by XRPD [2]: remained Compound I HCl Form A
physical stability, XRPD pattern after stress ([3]; 40° C./75% RH for 27 days): no changes were observed in the XRPD pattern

O=C(O)C(=O)O.O=Cc1c(O)cccc1OC[C@@H]1COCCN1C(=O)c1cccnc1CCO [Compound I Oxalate Form B, (S)-2-hydroxy-6-((4-(2-(2-hydroxyethyl)nicotinoyl)morpholin-3-yl)methoxy)benzaldehyde oxalate]
solubility [4]: > 134 mg/mL
physical stability under high humidity (XRPD) ([3]; 90% RH, ambient temperature, 11 days): still predominately Compound I Oxalate Form B
